{"source": "patent US20220143183A1", "about": "“PHOTOSWITCHABLE PROTACS AND SYNTHESIS AND USES THEREOF” (New York University, priority 2019, published 2022)", "key": {"[1]": {"target": "T1, BRD4 (Homo sapiens, UniProt O60885)", "assay": "Western blot of BRD4 levels in RS4;11 cells", "assay_type": "cell-based", "parameters": "endogenous in cells; host or cells: RS4;11 (ATCC CRL-1873)", "experimental": "Next, the light dependence of targeted protein degradation was analyzed in RS4;11 cells by western blot analysis of the BET proteins BRD2-4 (FIG. 5). To this end, cells were treated with increasing concentrations of our lead compound, PHOTAC-I-3, for 4 h and pulse-irradiated with 390 nm light (100 ms every 10 s). […] The cereblon-dependent degradation was confirmed by a competition experiment (FIG. 5E), and further validated by siRNA knockdown of cereblon (FIG. 13).\nWestern Immunoblot Analysis. Rabbit monoclonal Antibodies for BRD4 (#13440), β-Actin (#4970) c-Myc (#5605) and Anti-rabbit IgG, HRP-linked Antibody (#7074) were purchased from Cell Signalling Technologies.\nCells were incubated with different concentrations of selected compounds. They were placed in a light-proof box and preirradiated for 1 min at 390 nm followed by 100 ms pulses every 10 s or were kept in the dark for 4 h.\nCultured cells were collected by centrifugation and washed twice with cold PBS. The supernatant was removed and each cell pellet was lysed in 100 μL NP40-Cell-Lysis Buffer+0.1% SDS+1 mM PMSF+ protease inhibitor cocktail (Sigma Aldrich) for 30 min on ice, with vortexing at 10-minute intervals. Afterwards, cells were centrifuged at 13.000 rpm for 10 min at 4° C. Samples were stored on ice and the supernatant was collected for protein concentration determination using a Thermofisher Scientific Pierce™ Coomassie Plus (Bradford) Assay Kit.\nThe samples were diluted each with 5 μL Laemmli sample buffer Invitrogen (NuPAGE LDS Sample Buffer 4×) and 1 μL DTT, heated at 95° C. for 5 min. Respectively 20 μL of each sample was loaded in a lane of a Bio-Rad Mini-PROTEAN TGX precast Gel, 4-20%, used with tris-glycine SDS Running buffer. The gel ran 5 min at 50 V, then 35 min at 140 V. Next step was the electrotransfer to a polyvinylidene difluoride (PVDF) membrane which was carried out using an iBlot™ 2 Dry Blotting System set to the standard program. After the transfer, the membrane was washed with 25 mL TB ST for 5 min and subsequent incubated in 25 mL of blocking buffer (1×TBST+5% nonfat dry milk, Blotto, Santa Cruz Biotechnology) for 1 h at room temperature. The membrane was washed three times for 5 min each with 15 mL of TBST and incubated in a 10 mL antibody dilution buffer with gentle agitation at 4° C. overnight (Actin: 1:1000; c-MYC: 1:1000; BRD4: 1:1000). The next day, the membrane was washed again three times for 5 min each with 15 mL TBST, followed by incubation with anti-rabbit, HRP-linked antibody (1:2000) in 10 mL blocking buffer with gentle agitation for 1 h at room temperature. Afterwards, the membrane was washed three times for 5 min each with 15 mL TBST and then incubated in 10 mL of Clarity Max Western ECL Substrate solution for 5 min. Chemoluminescence imaging was performed on a Bio-Rad ChemiDoc™ Imaging System.\nLED illumination. For illumination of the cells we used the cell disco system as previously described in the literature^[25]. 390 nm 5 mm LEDs were purchased from Roithner Lasertechnik. Cells were preirradiated for 1 min at 390 nm, followed by 100 ms pulses every 10 s in 96- or 6-well plates."}, "[2]": {"assay": "UV-Vis photoswitching and photostationary states (PSS)", "assay_type": "physicochemical", "from_the_text": "The photoswitching and thermal relaxation properties of one of the lead compounds, PHOTAC-I-3, is shown in FIG. 3A-E. The optimal wavelength to switch to the cis isomer is 390 nm but similar photostationary states (PSS) can be obtained between 380 and 400 nm (FIG. 3C). At 390 nm a PSS of >90% cis could be obtained. Rapid cis to trans isomerization could be achieved by irradiation with wavelengths >450 nm, achieving PSS of ca >70% trans (FIG. 3C). […] Multiple cycles of photochemical isomerization are possible, in keeping with the fatigue-resistance of azobenzene photoswitches (FIG. 3E).\nUV-Vis spectrometry was performed on a Varian Cary 60 UV-Visible Spectrophotometer using disposable BRAND UV-Cuvette Disposable Spectrophotometer/Photometer Ultra-Micro Cuvettes, BrandTech (10 mm light path), an Agilent Technologies PCB 1500 Water Peltier system for temperature control and samples were irradiated with a cairn research Optoscan Monochromator with Optosource High Intensity Arc Lamp equipped with a 75 W UXL-S50A lamp from USHIO Inc. Japan and set to 15 nm full width at half maximum."}, "[3]": {"target": "T1, BRD4", "assay": "Immunoblot of BRD4 degradation in MB-MDA-231 cells", "assay_type": "cell-based", "parameters": "Immunoblot analysis after treatment of MB-MDA-231 cells with PHOTAC-I-3 for 18 h at different concentrations; endogenous in cells; host or cells: MB-MDA-231 (A10) and MB-MDA-468 (A11) (so in the source)", "settings": "18 h, 390 nm pulses vs dark", "experimental": "FIG. 10 depicts an immunoblot analysis of PHOTAC-I-3 A) Immunoblot analysis after treatment of MB-MDA-231 cells with PHOTAC-I-3 for 18 h at different concentrations. Cells were either irradiated with 100 ms pulses of 390 nm light every 10 s (left) or kept the dark (right). B) Immunoblot analysis after treatment of MB-MDA-468 cells with PHOTAC-I-3 for 18 h at different concentrations. Cells were either irradiated with 100 ms pulses of 390 nm light every 10 s (left) or kept the dark (right). (MWM, molecular weight marker). C) Immunoblot of BRD4 degradation in RS4;11 cells, promoted by PHOTAC-I-3 (300 nM) after 1 minute of irradiation (100 ms every 10 s), highlighting sustained degradation at the applied dosage.\nPhotoactivatable degraders and inhibitors of BRD4, c-MYC levels were also affected."}}}
{"smiles": "COc1cc(/N=N/c2cccc3c2CN(C2CCC(=O)NC2=O)C3=O)cc(OC)c1OCC(=O)NCCCCNC(=O)C[C@@H]1N=C(c2ccc(Cl)cc2)c2c(sc(C)c2C)-n2c(C)nnc21", "note": "(stereo partly drawn) [PHOTAC-I-3, 2-((S)-4-(4-chlorophenyl)-2,3,9-trimethyl-6H-thieno[3,2-f][1,2,4]triazolo[4,3-a][1,4]diazepin-6-yl)-N-(4-(2-(4-((E)-(2-(2,6-dioxopiperidin-3-yl)-1-oxoisoindolin-4-yl)diazenyl)-2,6-dimethoxyphenoxy)acetamido)butyl)acetamide]", "values": [{"measurement": "time dependence of BRD4 degradation", "setting": "[1]; 1 μM, 390 nm pulse irradiation, compared with BRD2 and BRD3", "value": "degraded more slowly"}, {"measurement": "BRD4 degradation at high concentration (hook effect)", "setting": "[1]; 10 μM, 4 h, 390 nm", "value": "less degradation"}, {"measurement": "BRD4 levels", "setting": "[1]; 4 h, 390 nm pulses (100 ms every 10 s)", "value": "pronounced decrease of BRD4 levels"}, {"measurement": "BRD4 degradation in the dark after brief activation", "setting": "[1]; activation for 1 min, 300 nM", "value": "Persistent degradation of BRD4"}, {"measurement": "optimal wavelength to switch to the cis isomer", "setting": "[2]", "value": 390, "unit": "nm"}, {"measurement": "photostationary state (PSS), cis fraction", "setting": "[2]; at 390 nm", "value": "> 90", "unit": "%"}, {"measurement": "photostationary state (PSS), trans fraction", "setting": "[2]; irradiation with wavelengths >450 nm", "value": "> 70", "unit": "%"}, {"measurement": "BRD4 degradation", "setting": "[3]", "value": "light-dependent degradation of BRD4"}]}
